Assay results as given in patent US12433892B2, “Compositions and methods of treatment for neurological disorders comprising depression” (Gliapharm SA, priority 2018, dated 2025).
Counter-ions that a name gives are not always drawn.

Assays:
astrocytes [1] = assay: Intracellular glycogen quantification; format: cell-based, mouse; details: Prestwick hits; 10 uM, 3 h
Procedure: For glycogen dosage, a protein dosage was first performed in order to assess whether harvested astrocytes from primary cell cultures yielded enough and equivalent amounts of proteins comparing each replicate, and to ensure that the obtained differences in glycogen quantities were due to drug action and not to inner protein quantities.
Astrocytes used for these dosages were previously grown in 6-well plates for 17 days and stimulated with Vehicle (DMSO) or drug of interest (1 μM to 100 μM) for 180 min, at 37° C. 5% CO2/95% air in D5030 complete medium. Medium was removed and replaced with 600 μl of 30 mM Tris HCl, and stored at −20° C.
Proteins were dosed using the micro BCA Protein Assay kit (Thermo Scientific), as described in the manufacturer's instructions. Briefly, thawed cells were sonicated and 5 μl aliquots were placed in a transparent 96-well plate, to which we added 25 μl 30 mM Tris HCl, 70 μl H2O and 100 μl of a BCA mix (made as described in manufacturer's guidelines). After a 120 min-incubation at 37° C., absorbance was measured with Safire 2 spectrophotometer at a wavelength of 562 nm, and protein quantities were determined from a standard curve of Bovine Serum Albumin (BSA).
Glycogen was quantified using a 250 μl-aliquot of the same stimulated, thawed, and sonicated cells. After an incubation period of 30 min at 90° C. and 400 rpm, 28 μl of an acetic acid/sodium acetate (both from Sigma) 0.1M pH 4.6 buffer was added to each aliquot, which was then separated in two. Each split aliquot received whether 5 μl of amyloglucosidase (Roche) or 5 μl H2O, and all cell solutions were incubated for 120 min in a shaking 37° C.-waterbath. After a centrifugation at 16'000 G for 5 min, 20 μl of supernatant were placed 96-well plate, to which 150 μl of a mix containing 0.67 mM ATP (Roche), 0.67 mM NADP (Roche), 1.8% hexokinase/glucose-6-phosphate dehydrogenase (Roche) and 0.1M Tris Buffer-HCl/3.3 mM magnesium (Fluka)/pH 8.1 buffer was added. Fluorescence was measured with Safire 2 spectrophotometer (340 nm excitation/440 nm emission). Glycogen concentration was obtained by subtracting glucose value of samples with amyloglucosidase to samples without amyloglucosidase, and were expressed relative to the amount of proteins previously determined.
Levels of intracellular glycogen in astrocytes were measured at 3 h after stimulation with 20 hits from the Prestwick library (10 μM each), as shown in FIG. 2. n=6-10; Ctrl pos. is glutamate (0.5 mM). Statistical analysis consisted in ANOVA followed by Fisher LSD post-hoc test for pair-wise comparisons.
(§1) Statistical analysis consisted in ANOVA followed by Fisher LSD post-hoc test for pair-wise comparisons.

astrocytes [2] = assay: Extracellular lactate quantification; format: cell-based, mouse; parameters: Score_LACTATE / Score Lact.: scale not given here; details: Appendix II; for EC50: Mus musculus, Astrocyte, lactate secretion
Procedure: Primary cultures of cerebrocortical astrocytes were obtained from 1-2-day-old OF1 mouse pups (Charles River Laboratories). Briefly, cortices were isolated and minced in small pieces under a dissecting microscope. The cells were incubated for 30 min at 37° C. in a solution containing 20 U/ml of papain enzyme (Worthington Biochemical), L-cysteine 1 mM (Sigma), and 10 kU/ml DNase I (Worthington Biochemical) for an enzymatic dissociation. Papain activity was stopped by the addition of fetal calf serum (FCS) to the solution, and a single-cell suspension was then obtained by mechanical dissociation, which consisted in cells trituration in a DMEM (D7777, Sigma-Aldrich) medium (supplemented with 44 mm NaHCO3, and 10 ml/L antibiotic/antimycotic solution) containing 10% FCS. The cells were seeded at an average density of 6×10^4 cells/cm^2 in poly-D-lysine-coated 96, 12 or 6-well culture plates, depending on their use, and incubated at 37° C. in a humidified atmosphere containing 5% CO2/95% air. Culture medium was renewed twice per week. Cells were stimulated and harvested between DIV14 and DIV17, when confluence and cell growth were optimal.
Secretion of L-lactate was determined in the extracellular medium of 96-well plated astrocytes after 90 min stimulation (at 37° C., in 5% CO2/95% air conditions) with the drug of interest. The stimulation medium was composed of D5030 medium (completed with D-glucose 5 mM and 44 mM sodium bicarbonate) for 90 min in concentrations ranging from 0 to 100 μM.
Briefly, 200 μl of a Glycine (Sigma)-Semicarbazide (Acros) 0.2M pH 10 buffer containing 3 mM NAD (Roche) and LDH 14 U/ml (Roche) was added to each well of a 96-well plate containing 30 μl aliquots complemented with 20 μl fresh complete D5030 medium. Samples were incubated at 37° C. for 1 h. After samples cooled down at room temperature, the fluorescence intensity (340 nm excitation/450 nm emission) that represents the amount of NADH produced was measured, and lactate concentration values were determined from a standard curve of L-lactate.
as §1
Levels of lactate secreted by astrocytes were measured in the extracellular medium at 90 min after stimulation with hits (molecules) from the CDC54K library.

| Compound | Glycogen (statistical significance of glycogen degradation) (astrocytes [1]) | Score Lact. (astrocytes [2]) | EC50 (astrocytes [2]) |
| --- | --- | --- | --- |
| CC[N+](CC)(CC(=O)Nc1c(C)cccc1C)Cc1ccccc1 [Denatonium benzoate] | ** (**p<0.01) |  |  |
| Clc1ccc2c(c1)CCc1cccnc1C2=C1CCNCC1 [Desloratadine] | * (*p<0.05) |  |  |
| CCCCOc1cc(C(=O)NCCN(CC)CC)c2ccccc2n1 [Dibucaine] | * (*p<0.05) |  |  |
| Cc1cccc(NS(=O)(=O)c2ccc(Cl)c(Cl)c2)c1 [F3394-1364] |  | 0.33 | 5.87 µM |
| FC(F)(F)c1cccc(CNc2ncnc3[nH]ncc23)c1 [F5285-0069] |  | 0.36 |  |
| CCc1ccc(S(=O)(=O)Nc2cc3c(cc2C)n(C)c(=O)n3C)cc1 [G433-0293] |  | 0.74 |  |
| COc1ccc(NS(=O)(=O)c2ccc(N3CCCCS3(=O)=O)cc2)cc1 [G508-0015] |  | 0.67 |  |
| CCNc1cc(C)nc(Nc2ccc(NC(=O)Cc3ccccc3)cc2)c1 [G869-0064] |  | 0.54 | 4.26 µM |
| CCNc1cc(C)nc(Nc2ccc(NC(=O)c3cccs3)cc2)n1 [G869-0071] |  | 0.63 |  |
| CC(COc1ccccc1)NC(C)C(O)c1ccc(O)cc1 (stereo not drawn) [Isoxsuprine hydrochloride] | ** (**p<0.01) |  |  |
| CC(=O)N1CC(C)(C)c2cc(S(=O)(=O)Nc3ccc(F)cc3C)ccc21 [L302-0181] |  | 0.52 |  |
| Cn1c(=O)c(N2CCC(NC(=O)Nc3cccc(Cl)c3)CC2)nc2ccccc21 [L932-0267] |  | 0.53 |  |
| CCc1ccc(NS(=O)(=O)c2c(C)c(-c3nnc(C4CC4)o3)n(C)c2C)cc1 [M950-1515] |  | 0.67 |  |
| CC(C)[N+](C)(CCOC(=O)C1c2ccccc2Oc2ccccc21)C(C)C [Propantheline bromide] | **** (****p<0.0001) |  |  |
| Cc1cc(/C=C/c2ccc3cc(N(C)C)ccc3[n+]2C)c(C)n1-c1ccccc1 [Pyrvinium pamoate] | **** (****p<0.0001) |  |  |
| CCOc1ccc(C2(O)C(C)[N+]3=C(CCC3)N2c2ccc(OC)cc2)cc1.[Br-] (stereo not drawn) [T0500-6629] |  | 0.61 |  |
| N#Cc1cc(C(=O)c2cc(F)ccc2O)cn(-c2ccc(F)c(Cl)c2)c1=O [T0516-6894] |  | 0.38 |  |
| Cc1sc2nc(CNc3nc4ccccc4c(=O)n3C)[nH]c(=O)c2c1C [T0517-2783] |  | 0.46 | 3.84 µM |
| COc1ccc(NS(=O)(=O)c2cccc(NC(=O)c3cccs3)c2)cc1 [T0517-4117] |  | 0.91 |  |
| O=c1[nH]nc(NCCOc2ccc(Br)cc2)n1C1CC1 [T533260] |  | 0.53 | 6.84 µM |
| COc1ccc(NS(=O)(=O)c2cccc(NC(=O)c3ccccc3)c2)cc1 [T5274959] |  | 0.68 |  |
| CC(C)S(=O)(=O)c1ccc(NS(=O)(=O)c2ccc(Cl)cc2)cc1 [T5311200] |  | 0.56 | 6.02 µM |

| Compound | Glycogen (statistical significance of glycogen degradation) (astrocytes [1]) | Score Lact. (astrocytes [2]) | EC50 (astrocytes [2]) |
| --- | --- | --- | --- |
| CCC(C)NS(=O)(=O)c1ccc(Oc2ccc(C)cc2)cc1 (stereo not drawn) [T5400234] |  | 0.33 |  |
| O=C(Nc1ccc(F)c(F)c1)c1ccc(Cl)c(S(=O)(=O)N2CCCC2)c1 [T5450239] |  | 0.67 |  |
| CCN(CC)S(=O)(=O)c1ccc(S(=O)(=O)Nc2ccc(C)cc2C)cc1 [T5453923] |  | 0.66 | 5.36 µM |
| CCn1c(=O)c(C)nc2cc(C(=O)N(Cc3ccc(F)cc3)C3CC3)ccc21 [T5586091] |  | 0.45 |  |
| Cc1nc2ccc(NC(=O)c3ccc4c(c3)CC(C)N4S(C)(=O)=O)cc2[nH]1 (stereo not drawn) [T5606387] |  | 0.38 | 4.61 µM |
| N#Cc1ccc(S(=O)(=O)Nc2ccccc2C(=O)NCc2ccccc2)cc1 [T5673322] |  | 0.63 |  |
| CCCC(=O)Nc1nc(-c2ccc3c(c2)CCO3)cs1 [T5691896] |  | 0.38 |  |
| Cc1ccc(-c2c[nH]c(NC(=O)c3ccncc3)n2)cc1[N+](=O)O [T5694329] |  | 0.47 | 1.59 µM |
| COc1ccc(C(C)NC(=O)c2cc(=O)c3ccccc3o2)cc1F (stereo not drawn) [T5710343] |  | 0.67 |  |
| CCc1ccccc1NC(=O)CN(C)c1ncnc2c1oc1ccccc12 [T5712071] |  | 0.8 |  |
| Cc1sc2nc(CSc3nc4ccccc4[nH]3)nc(N)c2c1C [T5719257] |  | 0.74 |  |
| COc1ccccc1NC(=O)CO/N=C(/N)c1cccc(C(F)(F)F)c1 [T5770640] |  | 0.55 |  |
| COc1cc(C)c(NC(=O)Cc2ccc(Cl)c(Cl)c2)cc1OC [T5783794] |  | 0.44 |  |
| c1nc(NCc2ccc3c(c2)OCO3)c2sccc2n1 [T5787526] |  | 0.71 |  |
| CC(=O)Nc1cccc(NC(=O)CSc2nc(C)c(C)n2C2CCCC2)c1 [T5788339] |  | 0.75 |  |
| c1ccc(CN2CCOCC2)c(CNc2ncnc3ccsc23)c1 [T5790476] |  | 0.79 |  |
| COc1cccc(C(CNc2nc(C(F)(F)F)nc3ccccc23)N(C)C)c1 (stereo not drawn) [T5800607] |  | 063 |  |
| CC(C)(C)NS(=O)(=O)c1cccc(C(=O)Nc2ccncc2)c1 [T5827594] |  | 0.71 |  |
| O=C(Nc1cccc([N+](=O)[O-])c1)c1ccc(S(=O)(=O)NCC2CCCO2)cc1 (stereo not drawn) [T6010789] |  | 1.31 | 5.82 µM |
| O=S(=O)(Nc1ccc(F)cc1)c1ccc(F)c(Cl)c1 [T6947848] |  | 0.98 | 5.5 µM |
| Cc1c(C)c2c(c(C)c1O)CCC(C)(COc1ccc(CC3SC(=O)NC3=O)cc1)O2 (stereo not drawn) [Troglitazone] | *** (***p<0.001) |  |  |
| CS(=O)(=O)NC1CCN(C(=O)c2ccc(F)cc2)C1 (stereo not drawn) [Z603-8037] |  | 0.32 |  |
